Measurements from patent US20220089600A1, “TGFß INHIBITOR AND PRODRUGS” (FUNDACIÓ INSTITUT DE RECERCA BIOMÈDICA (IRB BARCELONA), priority 2018, published 2022).

Key:
ACVR2B = biological target: T1, ACVR2B (Homo sapiens, UniProt Q13705); assay: KINOMEscan affinity, competition binding
T1 construct: purchased Eurofins (KINOMEscan service)
Experimental: (§1) The affinity, measured as Kd (dissociation constants), of the compound of formula I for the ALK family was determined by using the KINOMEscan™ Technology from Eurofins. Selectivity in front of ALK1 (ACVRL1), ALK2 (ACVR1), ALK3 (BMPR1A), ALK4 (ACVR1B), ALK6 (BMPR1B), ACVR2B and TGFβR2 was determined.
(§2) The KINOMEscan screening platform employs an active-site directed competition binding assay to quantitatively measure interactions between test compounds and kinases.
(§3) The assay is performed by combining three components: DNA-tagged kinase; immobilized ligand; and a test compound. The ability of the test compound to compete with the immobilized ligand is measured via quantitative PCR of the DNA tag.
(§4) Test compounds were prepared as 111× stocks in 100% DMSO. Kds were determined using an 11-point 3-fold compound dilution series with three DMSO control points being the top concentration 30 μM. […] The compounds were then diluted directly into the assays such that the final concentration of DMSO was 0.9%. All reactions performed in polypropylene 384-well plate. Each was a final volume of 0.02 ml. […] The beads were then re-suspended in elution buffer (1×PBS, 0.05% Tween 20, 0.5 μM non-biotinylated affinity ligand) and incubated at room temperature with shaking for 30 minutes. The kinase concentration in the eluates was measured by qPCR.
(§5) Compounds that bind the kinase active site and directly (sterically) or indirectly (allosterically) prevent kinase binding to the immobilized ligand, will reduce the amount of kinase captured on the solid support. […] Dissociation constants (Kds) for test compound-kinase interactions are calculated by measuring the amount of kinase captured on the solid support as a function of the test compound concentration.

ALK2 (ACVR1) = biological target: T2, ALK2 (ACVR1) (Homo sapiens, UniProt Q04771); assay: KINOMEscan affinity, competition binding
T2 construct: purchased Eurofins (KINOMEscan service)
T2 sequence (Q04771 21-509): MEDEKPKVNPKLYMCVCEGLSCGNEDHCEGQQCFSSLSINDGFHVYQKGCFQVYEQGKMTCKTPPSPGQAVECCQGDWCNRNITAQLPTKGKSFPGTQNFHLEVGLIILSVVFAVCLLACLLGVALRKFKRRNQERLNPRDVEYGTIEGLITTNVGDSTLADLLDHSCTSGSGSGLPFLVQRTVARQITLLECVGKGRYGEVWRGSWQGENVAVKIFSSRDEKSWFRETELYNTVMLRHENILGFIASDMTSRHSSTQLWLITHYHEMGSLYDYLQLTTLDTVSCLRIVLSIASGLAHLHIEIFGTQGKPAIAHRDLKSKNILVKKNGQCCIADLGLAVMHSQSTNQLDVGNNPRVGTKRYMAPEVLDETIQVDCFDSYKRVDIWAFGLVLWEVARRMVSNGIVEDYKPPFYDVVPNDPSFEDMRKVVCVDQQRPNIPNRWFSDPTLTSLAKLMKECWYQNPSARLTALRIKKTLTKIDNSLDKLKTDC
Experimental: as §1, §2, §3, §4, §5

TGFBR2 = biological target: T3, TGFBR2 (Homo sapiens, UniProt P37173); assay: KINOMEscan affinity, competition binding
T3 construct: purchased Eurofins (KINOMEscan service)
T3 sequence (P37173 23-567): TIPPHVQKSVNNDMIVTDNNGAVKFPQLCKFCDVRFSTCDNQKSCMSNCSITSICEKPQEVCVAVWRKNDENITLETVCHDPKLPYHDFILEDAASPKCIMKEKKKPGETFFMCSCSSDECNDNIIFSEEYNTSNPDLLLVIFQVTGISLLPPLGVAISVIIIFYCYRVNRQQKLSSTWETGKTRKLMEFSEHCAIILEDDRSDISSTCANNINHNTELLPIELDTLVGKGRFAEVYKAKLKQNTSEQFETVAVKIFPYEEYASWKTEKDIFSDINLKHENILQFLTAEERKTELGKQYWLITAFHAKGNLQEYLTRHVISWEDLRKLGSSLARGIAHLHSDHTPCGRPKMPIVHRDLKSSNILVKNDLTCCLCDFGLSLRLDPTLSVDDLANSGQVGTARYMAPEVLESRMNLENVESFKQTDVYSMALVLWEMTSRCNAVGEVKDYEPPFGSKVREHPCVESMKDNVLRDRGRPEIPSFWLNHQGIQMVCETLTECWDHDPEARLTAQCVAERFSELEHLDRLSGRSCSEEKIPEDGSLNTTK
Experimental: as §1, §2, §3, §4, §5

panel of 97 proteins = assay: scanEDGE (KINOMEscan) selectivity panel; format: binding
Experimental: Using scanEDGE (KINOMEscan, Eurofins) assays, the selectivity of the compound of formula I against a panel of 97 proteins was also measured. The selectivity profile of the compound of formula was good.

[1] = tested on: proteins in the SafetyScreen44 panel (versus ALK5); assay: SafetyScreen44 safety panel; conditions: SafetyScreen44 panel (Eurofins) of off-target proteins; read-out: selectivity ratios for the proteins in the SafetyScreen44 panel
Experimental: (§6) In addition, a safety assessment was performed by using the SafetyScreen44™ service from Eurofins. The targets therein are all strongly associated with in vivo adverse drug reactions as referenced in the publication Reducing safety-related drug attrition: the use of in vitro pharmacological profiling (Bowes J et al., Nature Review Drug Discovery 2012, 11(12): 909-922). The panel represents a rational first step in preliminary safety assessments as they provide early identification of potential off-target interactions for the optimization of safety margins. This Safety Panel includes both enzymatic and binding assays. The percentage of inhibition for the compound of formula I at 10 μM was lower than 50% for all proteins tested.

[2] = tested on: proteins in the SafetyScreen44 panel; assay: SafetyScreen44 safety panel; conditions: at 10 μM, all proteins tested
Experimental: as §6

MTO129 liver metastases [3] = assay: Mouse liver metastasis initiation/formation assay with MTOs; format: in vivo; conditions: for Efficacy (Cure rate): two weeks, mice with no metastases
Text: Mouse tumor organoids (MTOs) are derived from compound transgenic mice (conditional mutations in Apc, Kras, Trp53 and Tgfbr2, as well as bearing Lgr5-EGFP/CreER^T2) of the C57BL6/J strain and cultured as described in Tauriello et al. 2018 Nature 554(7693): 538-543. doi: 10.1038/nature25492. Organoids are tumor epithelial cells grown in a 3D matrix where they adopt an organotypic architecture, typically as spheroids with a lumen. In this way, cells retain a relatively normal polarity (which means that the outside surface, inside/luminal surface and cell-cell contacts are individually specialized), which is more physiological than in conventional 2D cell culture.
In all experiments described in present invention MTO129 were used (Tauriello et al. Nature. 2018).
In patients, treatment doses were reduced to 80 to 150 mg b.i.d in a regime of 14 days on-14 days off.
MTOs expressing a luciferase reporter were measured by bioluminescence imaging, using retroorbital injection of 50 μl 15 mg/ml D-luciferin potassium salt (Resem BV). Photons per second from the region spanning thorax/abdomen were quantified and normalized to the measure at the day of injection.
Control mice were treated with 150 μl of vehicle.
In the experiment shown in FIG. 13, potency of the indicated compounds to inhibit metastasis formation was assessed. Mice were treatments with indicated compounds started two days after MTO129 transplantation and continued during two weeks. Mice were sacrificed at 4 weeks post transplantation and liver metastases (LiMs) were counted by eye on fixed livers.

MTO129 liver metastases [4] = assay: Liver metastasis formation assay versus compounds 338 and 337 (FIG. 17); format: in vivo, mouse; conditions: FIG. 17, 1× dose, day 2 to 18, count at 21 days
Experimental: In another experiment (FIG. 17), we compared the in vivo therapeutic activity of compound of formula I to the related compound 338 and compound 337. […] All mice were treated from day 2 to day 18 post inoculation of tumor cells. Number of liver metastases were counted at 21 days after MTO inoculation.

T1 sequence (Q13705 19-512): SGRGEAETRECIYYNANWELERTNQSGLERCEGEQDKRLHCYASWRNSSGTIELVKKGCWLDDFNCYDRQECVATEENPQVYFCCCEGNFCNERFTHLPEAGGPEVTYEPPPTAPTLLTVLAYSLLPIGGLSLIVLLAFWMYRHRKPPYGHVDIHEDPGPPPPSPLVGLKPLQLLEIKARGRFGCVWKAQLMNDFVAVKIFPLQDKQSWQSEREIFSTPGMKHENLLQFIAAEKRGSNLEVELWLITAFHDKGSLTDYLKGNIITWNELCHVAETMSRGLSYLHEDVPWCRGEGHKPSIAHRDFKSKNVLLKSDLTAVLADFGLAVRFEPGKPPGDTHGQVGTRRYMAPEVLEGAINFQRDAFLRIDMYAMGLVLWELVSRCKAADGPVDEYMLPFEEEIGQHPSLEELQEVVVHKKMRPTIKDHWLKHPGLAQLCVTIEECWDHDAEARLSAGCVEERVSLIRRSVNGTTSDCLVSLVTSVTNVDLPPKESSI

Cc1cccc(-c2nn3c(c2-c2ccnc4ccc(O)cc24)CCC3)n1 [compound of formula I, 4-(2-(6-methylpyridin-2-yl)-5,6-dihydro-4H-pyrrolo[1,2-b]pyrazol-3-yl)quinolin-6-ol]
Selectivity improvement (ACVR2B; (I) versus Galunisertib): 1.2
Selectivity against ALK5 (ACVR2B; ACVR2B versus ALK5): 5.0
selectivity for ALK5 against ACVR2B (ACVR2B; KINOMEscan): 5 fold
Selectivity improvement (ALK2 (ACVR1); (I) versus Galunisertib): 1.8
Selectivity against ALK5 (ALK2 (ACVR1); ALK2 versus ALK5): 375
selectivity for ALK5 against ALK2 (ALK2 (ACVR1); KINOMEscan): greater than 300 fold
Selectivity improvement (TGFBR2; (I) versus Galunisertib): 83
selectivity for ALK5 against TGFBR2 (TGFBR2; KINOMEscan): 100 fold
Selectivity against ALK5 (TGFBR2; TGFBR2 versus ALK5): 100
selectivity profile (panel of 97 proteins): good
selectivity ratio at 10 μM [1]: > 500
percentage of inhibition [2]: lower than 50%
Efficacy (Cure rate) (MTO129 liver metastases [3]; 0.3x dose): ~90%
Efficacy (Cure rate) (MTO129 liver metastases [3]; 1x dose): ~90%
Efficacy (Cure rate) (MTO129 liver metastases [3]; 3x dose): 100%
Efficacy (Cure rate) (MTO129 liver metastases [3]; 9x dose): 100%
liver tumor count (LiMs) compared to galunisertib (MTO129 liver metastases [3]; FIG. 3, 0.3× to 9× doses): significant lower amount of liver tumors
metastatic tumor growth inhibitory capacity (bioluminescence) (MTO129 liver metastases [3]; FIG. 4, 0.3× dose, day 3 until day 14): effective
activity in preventing liver metastasis formation, in words (MTO129 liver metastases [3]; FIG. 13, 0.3× dose (21.25 mg/Kg b.i.d)): still effective
activity in preventing liver metastasis formation, in words (MTO129 liver metastases [3]; FIG. 13, 1× dose): significant improved activity
effective dose, fold lower than the effective Galunisertib dose (MTO129 liver metastases [3]; in vivo experiments): 10 fold
effective dose (>50% efficacy) (MTO129 liver metastases [3]; oral, divided b.i.d.): 42.5 mg/kg/day
potency to block the formation of metastasis compared to compound 338 and compound 337 (MTO129 liver metastases [4]): enhanced potency
